Source: BindingDB's records for doi:10.1016/j.bmcl.2019.06.049 (Dongguk University, 2019)

Target: T1, Nuclear factor erythroid 2-related factor 2 (Homo sapiens, UniProt Q16236)
T1 sequence (Q16236 whole entry): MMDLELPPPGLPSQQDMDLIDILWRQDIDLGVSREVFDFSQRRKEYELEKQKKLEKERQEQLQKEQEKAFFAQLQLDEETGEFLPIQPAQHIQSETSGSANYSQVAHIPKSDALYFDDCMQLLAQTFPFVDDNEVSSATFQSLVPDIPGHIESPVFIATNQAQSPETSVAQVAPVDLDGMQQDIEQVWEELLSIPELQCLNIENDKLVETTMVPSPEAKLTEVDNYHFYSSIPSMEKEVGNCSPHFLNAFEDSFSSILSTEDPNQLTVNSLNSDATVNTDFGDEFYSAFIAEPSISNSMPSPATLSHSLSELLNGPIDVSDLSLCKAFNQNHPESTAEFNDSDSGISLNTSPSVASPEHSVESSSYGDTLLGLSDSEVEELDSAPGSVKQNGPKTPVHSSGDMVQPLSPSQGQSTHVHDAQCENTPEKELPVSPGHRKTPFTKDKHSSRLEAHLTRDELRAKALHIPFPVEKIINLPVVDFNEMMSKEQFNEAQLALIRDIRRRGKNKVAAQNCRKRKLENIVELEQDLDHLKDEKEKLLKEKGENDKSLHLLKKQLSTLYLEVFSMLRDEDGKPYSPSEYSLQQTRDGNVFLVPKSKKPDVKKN
Test: Inhibition of NRF2 in human MDA-MB-231 cells harboring ARE-GFP-Luc assessed as reduction in ARE-luciferase activity after 16 hrs by firefly luciferase reporter gene assay

Question: COC(=O)[C@@]12OC[C@]34[C@H]([C@@H](O)[C@@H]1O)[C@@]1(C)CC(=O)C(O)=C(C)[C@@H]1C[C@H]3OC(=O)[C@H](OC(=O)C=C(C)C)[C@@H]24 was tested. Which IC50 did it give?
Answer: 29 nM
